Assay results taken from publication PMC5712521, “Dendrogenin A drives LXR to trigger lethal autophagy in cancers” (Nature Communications, 2017).
“And” between values parts separate entries of the source, which are not always exact repeats. Identical values can stand only once. Like-named read-outs stand apart in the source and are kept apart here.

Assays:
B16F10 cells = test: Immunoblot densitometry (LC3-II); assay type: cell-based, mouse; details: 2.5 µM DDA, 24 h
Experimental: Immunoblotting was carried out as described previously. Proteins were separated on SDS-PAGE gels, electro-transferred onto polyvinylidene difluoride membranes and incubated overnight at 4 °C with the following antibodies: anti-Atg3, anti-Atg5 (D1G9), anti-Atg7 (D12B11), anti-Beclin (D40C5), anti-caspase-3 (Cell Signaling), anti-Bcl-2 (Millipore), anti-Bax (Millipore), anti-LC3 (Sigma-Aldrich), anti-LXRα (SantaCruz), anti-LXRβ (SantaCruz), anti-Nur77 (Active motif), anti-NOR1 (R&D systems), anti-PARP (Cell Signaling), anti-Vps34 (Cell Signaling), or anti-Actin (Millipore). For visualization, an ECL plus kit (Amersham Biosciences) was used, and chemiluminescence was measured by autoradiography (Supplementary Fig. 9). Specific bands were quantified with ImageQuant software.

AML patient samples = test: Annexin-V/7AAD viability assay on AML patient samples (bulk and CD34+CD38−CD123+ progenitor/LSC); assay type: cell-based, human; details: for IC50: Homo sapiens, 48 h, panel of 61 AML patient samples
Experimental: The cytotoxic response to DDA of AML cells was determined by flow cytometry. Cells were exposed to DDA for 24 or 48 h then washed with cold phosphate-buffered saline (PBS) and resuspended in 200 µl of Annexin-V binding buffer. For the analysis of AML patient samples, cells were incubated with antibodies against the surface markers CD45-V450 (clone H130), CD34-PeCy7 (clone 8G12), CD38-APC (clone HB7) and CD123-PE (clone 9F5) (BD Pharmagen) before being resuspended in Annexin-V binding buffer. Annexin-V-fluorescein isothiocyanate (BD Pharmagen, clone 2331) and 7-aminoactinomycin D (7AAD) were then added, and the samples were incubated in the dark at room temperature for 15 min. The percentage of viable cells, Annexin-V-7AAD-negative cells, was scored using a flow cytometer.
(§1) AML patient and normal bone marrow samples were obtained from patients in the Hematology Department of Toulouse (France), after obtaining consent in accordance with the Declaration of Helsinki[67], and according to institutional guidelines. Samples were stored at the INSERM-1037 HIMIP collection (no. DC-2008-307-CPTP1 HIMIP). For some experiments, fresh leukemic blasts recovered at diagnosis were immediately treated with DDA. In other cases, frozen cells were thawed in IMDM medium with 20% FBS. Patient characteristics are shown in supplementary data 1. Normal bone marrow cells were subjected to Ficoll-Paque density gradient separation to isolate mononuclear cells, followed by CD34+ cell separation using high-gradient magnetic-activated cell sorting, according to the manufacturer’s manual. The in vivo assays were performed with cryopreserved cells.

[1] = test system: normal hematopoietic progenitor cells; test: Normal human CD34+ cells engrafted into NSG mice; assay type: in vivo; details: human BM CD34+ engrafted into NSG mice; 20 mg/kg/day i.p., 3 weeks
From the text: as §1
The engraftment of human primary AML cells was performed on NSG mice. […] Two and a half weeks after the injection of human cells, mice were treated with DDA (20 mg/kg/day by IP injection) or vehicle as control for 2, 3 weeks, after which the engraftment of human AML and normal hematopoietic cells was measured in the bone marrow, spleen and brain by quantifying the percentage of hCD45+CD33+ cells by flow cytometry. The viability of AML cells was established by quantifying the percentage of hCD45+CD33+Annexin-V- cells.

Compound: CC(C)CCC[C@@H](C)[C@H]1CC[C@H]2[C@@H]3C[C@@H](NCCc4cnc[nH]4)[C@@]4(O)C[C@@H](O)CC[C@]4(C)[C@H]3CC[C@]12C [DDA, Dendrogenin A]
- LC3-II protein, densitometry (B16F10 cells; B16F10 siATG7): 0.8
- LC3-II protein, densitometry (B16F10 cells; B16F10 siBECN1): 1.3
- LC3-II protein, densitometry (B16F10 cells; B16F10 siNOR1 + siNur77): 0.8
- LC3-II protein, densitometry (B16F10 cells; B16F10 siNOR1): 0.8
- LC3-II protein, densitometry (B16F10 cells; B16F10 siNur77): 1.1
- LC3-II protein, densitometry (B16F10 cells; B16F10 siSC): 2.5 and 1.8 and 2.3
- LC3-II protein, densitometry (B16F10 cells; B16F10 siVPS34): 1.9
- efficiency relative to cytarabine (AML patient samples; AML bulk and progenitor/LSC (CD34+CD38−CD123+) subpopulation): 100 fold
- IC50 (AML patient samples; read-out: median IC50, cell viability): 3.3 µM
- IC50 (AML patient samples; read-out: range of IC50, cell viability): 1.2 to 11.3 µM
- effect on normal hematopoietic progenitor cells [1]: no effect
